In patent US11899025B2, “Pharmaceutical composition for preventing or treating neurodegenerative diseases comprising COX2 acetylating agent as active ingredient” (KYUNGPOOK NATIONAL UNIVERSITY INDUSTRY-ACADEMIC COOPERATION …, priority 2018, dated 2024):

Test system: APP/PS1 neurons
Test: neuroinflammatory resolution factor (SPMs) secretion in APP/PS1 neurons after COX2 acetylating agent treatment
Format: cell-based, mouse
Details: 10 nM; FIG. 8b
Protocol: A commercially available ELISA kit (Biosource) was used, and the hemispheres of mice were homogenized and placed in a buffer containing 0.02M guanidine to prepare a sample for Aβ ELISA. In order to measure the neuroinflammatory resolution factor, conditioned media (CM) was prepared after culturing neurons from mouse cerebrum. Thereafter, according to the manufacturer's manual, ELISA for Aβ and SPM was performed.
In order to measure the neuroinflammatory resolution factor, after culturing neurons from mouse cerebrum, CM was prepared by treatment with 10 nM N-acetyl sphingosine 1 phosphate (Toronto Research chemicals, C262710) and N-acetyl sphingosine (Sigma, 01912). For COX2 acetylation analysis, neurons were cultured from mouse cerebrum and then treated with 2 uCi [^14C]N-acetyl sphingosine (ARC, ARC1024). In addition, for in vivo experiments, 7-month-old APP/PS1 mice were injected with 5 mg/kg N-acetyl sphingosine (Sigma, 01912), 1 mg/kg FTY720 and 3 uM S1P daily for 4 weeks via intraperitoneal injection. 1 month-old NPC mice were injected with 5 mg/kg N-acetyl sphingosine (Sigma, 01912) and 2-month-old FUS mice with 30 mg/kg N-acetyl sphingosine (Sigma, 01912) daily for 4 weeks via subcutaneous injection.
First, in order to confirm whether the selected compounds promote the secretion of neuroinflammatory resolution factor in neurons, after treatment with N-acetyl sphingosine 1 phosphate or N-acetyl sphingosine in APP/PS1 neurons, the expression levels of neuroinflammatory resolution factor were confirmed. As a result, it was confirmed that the expression levels of LxA4 and RvE1 in neurons of APP/PS1 mice were recovered when treated with N-acetyl sphingosine 1 phosphate or N-acetyl sphingosine (FIG. 8b).

With `CCCCCCCCCCCCC/C=C/[C@@H](O)[C@H](CO)NC(C)=O` [N-acetyl sphingosine] the “expression level of LxA4 in neurons of APP/PS1 mice” value was “recovered” and the “expression level of RvE1 in neurons of APP/PS1 mice” value was “recovered”.
